Measured values taken from patent US20230355597A1, “COMPOUNDS, COMPOSITIONS, AND METHODS FOR THE TREATMENT AND PREVENTION OF AVIAN PATHOGENIC E. COLI (APEC)” (OHIO STATE INNOVATION FOUNDATION, priority 2018, published 2023).
≈ marks a conversion by molar mass, not a printed value. Like-named read-outs stand apart in the source and are kept apart here. Marks after values point to notes of the source that are not given here.

Columns and labels:
[1] = tested on: APEC O1; experiment: Antimicrobial susceptibility profile, CAMHB micro-dilution (CLSI); assay type: cell-based, avian pathogenic Escherichia coli (APEC); settings: (R) = resistant
[2] = tested on: APEC O2; experiment: as above; assay type: cell-based, avian pathogenic Escherichia coli (APEC); settings: (R) = resistant
[3] = tested on: APEC O78-53; experiment: as above; assay type: cell-based, avian pathogenic Escherichia coli (APEC); settings: APEC O78-53, CAMHB micro-dilution; (R) = resistant
[4] = tested on: APEC O1-63; experiment: as above; assay type: cell-based, avian pathogenic Escherichia coli (APEC); settings: APEC O1-63, CAMHB micro-dilution; (R) = resistant
[5] = tested on: APEC O18; experiment: as above; assay type: cell-based, avian pathogenic Escherichia coli (APEC); settings: (R) = resistant
[6] = tested on: APEC O109; experiment: as above; assay type: cell-based, avian pathogenic Escherichia coli (APEC); settings: (R) = resistant
[7] = tested on: APEC O8; experiment: as above; assay type: cell-based, avian pathogenic Escherichia coli (APEC); settings: (R) = resistant
[8] = tested on: APEC O78; experiment: as above; assay type: cell-based, avian pathogenic Escherichia coli (APEC); settings: (R) = resistant
[9] = tested on: APEC O2-211; experiment: as above; assay type: cell-based, avian pathogenic Escherichia coli (APEC); settings: APEC O2-211, CAMHB micro-dilution; (R) = resistant
[10] = tested on: APEC O115; experiment: as above; assay type: cell-based, avian pathogenic Escherichia coli (APEC); settings: (R) = resistant
[11] = tested on: APEC O15; experiment: as above; assay type: cell-based, avian pathogenic Escherichia coli (APEC); settings: (R) = resistant
[12] = tested on: APEC O35; experiment: as above; assay type: cell-based, avian pathogenic Escherichia coli (APEC); settings: (R) = resistant
[13] = tested on: APEC O35; assay type: cell-based, avian pathogenic Escherichia coli (APEC); settings: APEC O35, M63 media; MIC/MBC
[14] = tested on: APEC O109; assay type: cell-based, avian pathogenic Escherichia coli (APEC); settings: APEC O109, M63 media; MIC/MBC
[15] = Pilot experiment in chickens; assay type: in vivo, chicken
[16] = tested on: APEC O1; assay type: cell-based, avian pathogenic Escherichia coli (APEC); settings: APEC O1, M63 media; MIC/MBC
[17] = tested on: APEC O2; assay type: cell-based, avian pathogenic Escherichia coli (APEC); settings: APEC O2, M63 media; MIC/MBC
[18] = tested on: intracellular APEC O2 in Caco-2 cells; experiment: Intracellular survival assay (cidal SMs); settings: O2, Caco-2, 6 h treatment; superscript = multiple of MIC
[19] = tested on: intracellular APEC O78 in Caco-2 cells; experiment: Intracellular survival assay (cidal SMs); settings: O78, Caco-2, 6 h treatment; superscript = multiple of MIC
[20] = tested on: intracellular APEC O1 in Caco-2 cells; experiment: Intracellular survival assay (cidal SMs); settings: O1, Caco-2, 6 h treatment; superscript = multiple of MIC
[21] = tested on: APEC O1-63; assay type: cell-based, avian pathogenic Escherichia coli (APEC); settings: APEC O1-63, M63 media; MIC/MBC
[22] = tested on: APEC O8; assay type: cell-based, avian pathogenic Escherichia coli (APEC); settings: APEC O8, M63 media; MIC/MBC
[23] = tested on: APEC O15; assay type: cell-based, avian pathogenic Escherichia coli (APEC); settings: APEC O15, M63 media; MIC/MBC
[24] = tested on: biofilm embedded APEC O78; experiment: MBEC High-throughput assay; assay type: cell-based, avian pathogenic Escherichia coli (APEC); settings: biofilm embedded APEC O78; superscript = multiple of MIC (footnote)
[25] = tested on: intracellular APEC O78 in THP-1 cells; experiment: Intracellular survival assay (cidal SMs); settings: O78, THP-1, 6 h treatment; superscript = multiple of MIC
[26] = tested on: APEC O78; experiment: Loss of 260/280 nm absorbing materials assay; assay type: cell-based, avian pathogenic Escherichia coli (APEC); settings: 2X MBC, 1 h, *P<0.05 vs DMSO; for Absorbance 260: 260 nm absorbing material in supernatant; for Absorbance 280: 280 nm absorbing material in supernatant
[27] = tested on: APEC O78; experiment: Confocal microscopy bacterial cytological profiling; assay type: cell-based, avian pathogenic Escherichia coli (APEC); settings: 2X MBC
Description: Confocal and scanning electron microscopy. Confocal microscopy was used for bacterial cytological profiling (BCP) to identify the cellular pathways targeted by SMs as described previously. […] After incubation, treated cultures were centrifuged, washed, and resuspended in 100 μL PBS. […] Cultures were then centrifuged, washed, and resuspended in PBS to 1⁄10th volume of the original cultures.

[28] = tested on: intracellular APEC O78 in HD11 cells; experiment: Intracellular survival assay (cidal SMs); settings: O78, HD11, 6 h treatment; superscript = multiple of MIC
[29] = tested on: APEC O78-53; assay type: cell-based, avian pathogenic Escherichia coli (APEC); settings: APEC O78-53, M63 media; MIC/MBC
[30] = tested on: APEC O2-211; assay type: cell-based, avian pathogenic Escherichia coli (APEC); settings: APEC O2-211, M63 media; MIC/MBC
[31] = tested on: intracellular APEC O1 in HD11 cells; experiment: Intracellular survival assay (cidal SMs); settings: O1, HD11, 6 h treatment; superscript = multiple of MIC
[32] = tested on: APEC O78; assay type: cell-based, avian pathogenic Escherichia coli (APEC); settings: APEC O78, M63 media; cell prints MIC/MBC
[33] = tested on: intracellular APEC O2 in HD11 cells; experiment: Intracellular survival assay (cidal SMs); settings: O2, HD11, 6 h treatment; superscript = multiple of MIC
[34] = tested on: intracellular APEC O2 in THP-1 cells; experiment: Intracellular survival assay (cidal SMs); settings: O2, THP-1, 6 h treatment; superscript = multiple of MIC
[35] = tested on: APEC O115; assay type: cell-based, avian pathogenic Escherichia coli (APEC); settings: APEC O115, M63 media; MIC/MBC
[36] = tested on: APEC O18; assay type: cell-based, avian pathogenic Escherichia coli (APEC); settings: APEC O18, M63 media; MIC/MBC
[37] = tested on: intracellular APEC O1 in THP-1 cells; experiment: Intracellular survival assay (cidal SMs); settings: O1, THP-1, 6 h treatment; superscript = multiple of MIC
[38] = tested on: Rif^r APEC O78; experiment: In vivo efficacy of growth inhibitors in APEC infected broiler chickens

Compound: CC1(C)S[C@@H]2[C@H](NC(=O)[C@H](N)c3ccccc3)C(=O)N2[C@H]1C(=O)O [Ampicillin]
- MIC [1]: >64 (R) µg/mL
- MIC [2]: >64 (R) µg/mL
- MIC [3]: 4 µg/mL (≈ 11.4 µM)
- MIC [4]: 4 µg/mL (≈ 11.4 µM)
- MIC [5]: 4 µg/mL (≈ 11.4 µM)
- MIC [6]: >64 (R) µg/mL
- MIC [7]: 4 µg/mL (≈ 11.4 µM)
- MIC [8]: >64 (R) µg/mL
- MIC [9]: 4 µg/mL (≈ 11.4 µM)
- MIC [10]: >64 (R) µg/mL
- MIC [11]: 2 µg/mL (≈ 5.72 µM)
- MIC [12]: 2 µg/mL (≈ 5.72 µM)

Compound: CCCCCCCCCCCCCCCCn1c[n+](C)c2ccccc21.[Br-] [SM5]
- MBC [13]: 25 µM
- MIC [13]: 12.5 µM
- MBC [14]: 12.5 µM
- MIC [14]: 12.5 µM
- impact on chicken health and performance [15]: no negative impact
- MBC [16]: 12.5 µM
- MIC [16]: 12.5 µM
- MBC [17]: 25 µM
- MIC [17]: 12.5 µM
- SMs intracellular APEC clearance concentration [18]: 100^d µM
- SMs intracellular APEC clearance concentration [19]: 50^c µM
- SMs intracellular APEC clearance concentration [20]: 100^d µM
- MBC [21]: 25 µM
- MIC [21]: 12.5 µM
- MBC [22]: 12.5 µM
- MIC [22]: 12.5 µM
- MBC [23]: 12.5 µM
- MIC [23]: 12.5 µM
- MBEC [24]: 25^c µM
- SMs intracellular APEC clearance concentration [25]: 50^c µM
- Absorbance 260 [26]: 4.00*
- Absorbance 280 [26]: 2.67*
- cytological profile (confocal, FM4-64 / SYTO-9) [27]: membrane disruptors
- SMs intracellular APEC clearance concentration [28]: 50^c µM
- MBC [29]: 12.5 µM
- MIC [29]: 12.5 µM
- MBC [30]: 12.5 µM
- MIC [30]: 12.5 µM
- SMs intracellular APEC clearance concentration [31]: 100^d µM
- MBC [32]: 25 µM
- MIC [32]: 12.5 µM
- SMs intracellular APEC clearance concentration [33]: 50^c µM
- SMs intracellular APEC clearance concentration [34]: 50^c µM
- MBC [35]: 12.5 µM
- MIC [35]: 12.5 µM
- MBC [36]: 12.5 µM
- MIC [36]: 12.5 µM
- SMs intracellular APEC clearance concentration [37]: 100^d µM

Compound: CCCCCCCCCCCCCCCC[n+]1ccn(CC#N)c1 [SM6]
- MBC [13]: 25 µM
- MIC [13]: 12.5 µM
- MBC [14]: 12.5 µM
- MIC [14]: 12.5 µM
- impact on chicken health and performance [15]: no negative impact
- MBC [16]: 25 µM
- MIC [16]: 12.5 µM
- MBC [17]: 25 µM
- MIC [17]: 25 µM
- SMs intracellular APEC clearance concentration [18]: 100^d µM
- SMs intracellular APEC clearance concentration [19]: 50^c µM
- SMs intracellular APEC clearance concentration [20]: 100^d µM
- MBC [21]: 25 µM
- MIC [21]: 12.5 µM
- MBC [22]: 12.5 µM
- MIC [22]: 12.5 µM
- MBC [23]: 25 µM
- MIC [23]: 12.5 µM
- MBEC [24]: 12.5^a µM
- SMs intracellular APEC clearance concentration [25]: 50^c µM
- Absorbance 260 [26]: 3.99*
- Absorbance 280 [26]: 2.69*
- cytological profile (confocal, FM4-64 / SYTO-9) [27]: membrane disruptors
- SMs intracellular APEC clearance concentration [28]: 50^c µM
- MBC [29]: 25 µM
- MIC [29]: 12.5 µM
- MBC [30]: 12.5 µM
- MIC [30]: 12.5 µM
- SMs intracellular APEC clearance concentration [31]: 100^d µM
- MBC [32]: 25 µM
- MIC [32]: 12.5 µM
- SMs intracellular APEC clearance concentration [33]: 50^c µM
- SMs intracellular APEC clearance concentration [34]: 50^c µM
- MBC [35]: 25 µM
- MIC [35]: 12.5 µM
- MBC [36]: 25 µM
- MIC [36]: 12.5 µM
- reduction of average APEC load in internal organs ([38]; average of liver, heart, lung and kidney, vs untreated control): 1.4 logs
- cumulative lesions score ([38]; liver, heart, lung and air-sacs, untreated 6.2): 5.4
- reduction of APEC induced mortality ([38]; oral gavage twice a day, 5 days, untreated mortality (58.34%) normalized to 100%): 42.86%
- reduction of APEC lesions severity (%), Air-sacs (airsacculitis) ([38]; untreated control = 100%): -41.2%
- reduction of APEC lesions severity (%), Heart (pericarditis) ([38]; untreated control = 100%): 20%
- reduction of APEC lesions severity (%), Lung (lung congestion) ([38]; untreated control = 100%): 33.3%
- reduction of APEC load, Heart ([38]; vs untreated control): 1.3 log CFU/g of tissues
- reduction of APEC load, Kidney ([38]; vs untreated control): 1.9 log CFU/g of tissues
- reduction of APEC load, Liver ([38]; vs untreated control): 1.2 log CFU/g of tissues
- reduction of APEC load, Lung ([38]; vs untreated control): 1.2 log CFU/g of tissues
- Body weight gain (BWG) ([38]; weight of live chickens before necropsy minus weight before treatment): 222.18±54.01
- SMs intracellular APEC clearance concentration [37]: 100^d µM

Compound: CN(C)[C@@H]1C(=O)C(C(N)=O)=C(O)[C@@]2(O)C(=O)C3=C(O)c4c(O)cccc4[C@@](C)(O)[C@H]3C[C@@H]12 [Tetracycline]
- MIC [1]: >64 (R) µg/mL
- MIC [2]: >64 (R) µg/mL
- MIC [3]: >64 (R) µg/mL
- MIC [4]: 16 (R) µg/mL
- MIC [5]: 2 µg/mL (≈ 4.5 µM)
- MIC [6]: 1 µg/mL (≈ 2.25 µM)
- MIC [7]: >64 (R) µg/mL
- MIC [8]: 32 (R) µg/mL
- MIC [9]: >64 (R) µg/mL
- MIC [10]: >64 (R) µg/mL
- MIC [11]: >64 (R) µg/mL
- MIC [12]: 1 µg/mL (≈ 2.25 µM)

Compound: Colistin
- MIC [1]: 0.5 µg/mL
- MIC [2]: 0.5 µg/mL
- MIC [3]: 0.5 µg/mL
- MIC [4]: 4 (R) µg/mL
- MIC [5]: 1 µg/mL
- MIC [6]: 0.5 µg/mL
- MIC [7]: 1 µg/mL
- MIC [8]: 0.25 µg/mL
- MIC [9]: 4 (R) µg/mL
- MIC [10]: 1 µg/mL
- MIC [11]: 1 µg/mL
- MIC [12]: 1 µg/mL
